Values of other authors as cited in patent US9119805B2, “Therapy and prevention of problem drinking” (THE UNIVERSITY OF SYDNEY, priority 2009, dated 2015).
Starred links: 1 amine or outer side, 2 acyl side, 3 side chain; linkers in the order of their positions; H or OH if unused. Positions of bridges follow the written chain, without caps; N, C: chain ends. Residues, ends and D or L forms follow the SMILES beside them. X1 = O=C(CCC[*:2])[*:1]

What was measured:
dependent drinkers = details: cited from earlier work
vasopressin receptor = details: cited from earlier work
[1] = animal tests; cited from earlier work
[2] = compared with exogenously applied oxytocin; cited from earlier work
oxytocin receptor = oxytocin receptor (Homo sapiens, UniProt P30559); details: compared to native oxytocin; cited from earlier work
oxytocin receptor, sequence (P30559 whole entry): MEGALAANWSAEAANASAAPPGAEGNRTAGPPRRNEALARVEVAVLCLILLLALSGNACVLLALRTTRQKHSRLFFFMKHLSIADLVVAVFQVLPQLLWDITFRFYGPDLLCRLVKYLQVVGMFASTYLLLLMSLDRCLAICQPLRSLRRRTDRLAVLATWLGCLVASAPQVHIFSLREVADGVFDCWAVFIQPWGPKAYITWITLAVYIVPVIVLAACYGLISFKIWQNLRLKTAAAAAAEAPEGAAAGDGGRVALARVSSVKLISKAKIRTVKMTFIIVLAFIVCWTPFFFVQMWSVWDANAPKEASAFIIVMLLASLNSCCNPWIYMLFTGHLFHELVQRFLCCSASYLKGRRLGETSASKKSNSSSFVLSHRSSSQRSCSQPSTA

**Q.** For CC1(C)O[C@@H]2[C@@H](CO[C@@]3(COS(N)(=O)=O)OC(C)(C)O[C@@H]23)O1 [Topiramate], which “proportion of subjects with 28 consecutive days of abstinence or non-hazardous/harmful drinking” value (dependent drinkers; short-term abstinence) is on record?
**A.** The value was “increased the proportion”.

**Q.** For Cc1cc(C(=O)N2Cc3cnn(C)c3Nc3ccccc32)ccc1CNC(=O)N1CCN(Cc2cc(O)cc(O)c2)CC1 [WAY-267,464], which “affinity for the vasopressin receptor” value (vasopressin receptor) is on record?
**A.** Its value is “negligible affinity”.

**Q.** What about the anti-depressant effect [1] of the same compound?
**A.** The anti-depressant effect was “no apparent anti-depressant effect”.

**Q.** What about the centrally-mediated oxytocinergic actions [1] of the same compound?
**A.** The centrally-mediated oxytocinergic actions was “anxiolytic effects”.

**Q.** What about the “extent of crossing the blood-brain-barrier” value [2] of the same compound?
**A.** Its value is “significantly greater extent than exogenously applied oxytocin”.

**Q.** For CC(=O)NCCCS(=O)(=O)O [acamprosate], which patients continuously abstinent (dependent drinkers; after 6 months, placebo 23%) is on record?
**A.** The patients continuously abstinent was “about 36%”.

**Q.** Which duration of activity (oxytocin receptor) does the source give for CC[C@H](C)[C@@H]1NC(=O)[C@H](Cc2ccc(OC)cc2)NC(=O)CCCSC[C@@H](C(=O)N2CCC[C@H]2C(=O)N[C@@H](CC(C)C)C(=O)NCC(N)=O)NC(=O)[C@H](CC(N)=O)NC(=O)[C@H](CCC(N)=O)NC1=O [carbetocin, 1-deamino-1-monocarba-[2-O-methyltyrosine]-oxytocin] (Y(Me)IQNCPLG-NH2; linker N-5 via X1) here?
**A.** Its duration of activity is “long-lasting activity”.

**Q.** With O=C1CC[C@@]2(O)[C@H]3Cc4ccc(O)c5c4[C@@]2(CCN3CC2CC2)[C@H]1O5 [naltrexone] as the compound, how does the reduction of relapse (dependent drinkers; oral, during the first 3 months) read?
**A.** The reduction of relapse was “about 36%”.
